Read-outs that look alike come from different tables or passages of the source. Peptide text beside a SMILES is read from it. * marks the point of attachment. Cbz = O=C(OCc1ccccc1)*
Tests used:
[1] = test system: polyubiquitinated cyclin D1; assay: Polyubiquitination of cyclin D1, IP-immunoblot in HA-ubiquitin transfected S phase HCT 116 cells; assay type: cell-based, human
Method: FIG. 3 illustrates that cyclin D1 is destabilized during S phase through the ubiquitin-proteasome pathway in cancers. Panels A and B: Pulse-chase analysis of cyclin D1 protein in NIH 3T3 (Panel A) and HCT 116 (Panel B) cells. When most of the populations were in G1 phase (9 hrs for NIH3T3 and 6 hrs for HCT 116) or in S phase (21 hrs for NIH3T3 and 15 hrs for HCT 116), cells were released from quiescence and then labeled with 35^S-methionine for 1 hour. Subsequently these cells were chased with cold methionine for the indicated times and then lysed. Cyclin D1 was immunoprecipitated and then analyzed with SDS-PAGE. Autoradiography was performed. Levels of metabolically labeled-cyclin D1 were estimated by quantitative scanning using the Quantity One (Bio-Rad) software and blotted on the graph to determine the half-life of cyclin D1. Panel C: illustrates that the turnover of cyclin D1 protein is mediated by the ubiquitin-proteasome pathway. […]
To confirm that the destabilization of cyclin D1 in the S phase is related to polyubiquitination, HCT 116 colon cancer cells were transfected with (lanes 1-3) or without (lane 4) HA-tagged ubiquitin cDNA and then synchronized to the S phase (FIG. 3, Panel D). […] A group of slower migrating bands was detected by the HA antibody exclusively in the anti-cyclin D1 immunoprecipitates in the presence of ubiquitin (lane 2 and 3). […]

cyclin D1 protein [2] = assay: Western blot of cyclin D1 with or without MG132 during cell cycle progression, NIH 3T3 cells; assay type: cell-based, mouse
Method: HCT 116 and NIH 3T3 cells were treated with the proteasome inhibitor MG132 at each time point during cell cycle progression (FIG. 3, Panel C).

cyclin D1 protein [3] = assay: Western blot of cyclin D1 with or without MG132 during cell cycle progression, WI-38 cells; assay type: cell-based, human; settings: MG132 2 hours
Method: (§1) FIG. 3 illustrates that cyclin D1 is destabilized during S phase through the ubiquitin-proteasome pathway in cancers. Panels A and B: Pulse-chase analysis of cyclin D1 protein in NIH 3T3 (Panel A) and HCT 116 (Panel B) cells. When most of the populations were in G1 phase (9 hrs for NIH3T3 and 6 hrs for HCT 116) or in S phase (21 hrs for NIH3T3 and 15 hrs for HCT 116), cells were released from quiescence and then labeled with 35^S-methionine for 1 hour. Subsequently these cells were chased with cold methionine for the indicated times and then lysed. Cyclin D1 was immunoprecipitated and then analyzed with SDS-PAGE. Autoradiography was performed. Levels of metabolically labeled-cyclin D1 were estimated by quantitative scanning using the Quantity One (Bio-Rad) software and blotted on the graph to determine the half-life of cyclin D1. Panel C: illustrates that the turnover of cyclin D1 protein is mediated by the ubiquitin-proteasome pathway. […] Western blot was performed with cyclin D1 and p-actin antibodies. Panel D: Polyubiquitination of cyclin D1 protein. HCT 116 colon cancer cells were transfected with (lane 1-3) or without (lane 4) ubiquitin cDNA and then synchronized to S phase through the sequential manipulation of serum starvation and stimulation. Cells were treated with (lane 3 and 4) or without (lane 1 and 2) 25 μM MG132 for an hour. […]

cyclin D1 protein [4] = assay: Western blot of cyclin D1 with or without MG132 during cell cycle progression, HCT 116 cells; assay type: cell-based, human; settings: MG132 2 hours
Method: as §1

GSK3α/β = assay: Phosphorylation-specific blot for GSK3α/β, SW480 cells; assay type: cell-based, human; settings: 24 hours of treatment
[5] = test system: cyclin D1 protein (Thr286 phosphorylation); assay: Western blot of cyclin D1 and p-Thr286 cyclin D1 in HA-CD1 SW480 cells treated with kinase inhibitors; assay type: cell-based, human
Method: Immunoblot analysis was performed. […] Asterisks indicate endogenous cyclin D1 expression. Panel B: Western blot analysis with fractionated nuclear proteins. […] Cell-cycle distribution was shown as bar graphs. Nuclear proteins were fractionated at indicated time points. […] Levels of total and phosphorylated cyclin D1 were determined.
(§2) Immunoblotting Analysis. […] SDS-PAGE was described previously (Tetsu and McCormick, 2003).
To identify the kinase responsible for cyclin D1 Thr286 phosphorylation, small molecule inhibitors of GSK3β, CDK4, and MEK were used to determine whether they were able to alter the phosphorylation and stability of ectopically expressed WT cyclin D1 protein in cultured cells (FIG. 5, Panels C and D). Ectopically expressed WT cyclin D1 protein was used to assess the stability of cyclin D1 protein. The endogenous expression was not assessed because transcription of cyclin D1 is regulated by the Ras/MAPK signaling. Therefore, endogenous expression of cyclin D1 is unable to be detected following inhibition of MAPK activities through the MEK/MAPK inhibitors or serum starvation (Tetsu et al., 2003. Cancer Cell. 3, 233-45).

cyclin D1 protein [6] = assay: Cyclin D1 expression and half-life after 4-HT in ΔB-Raf:ER^TAM NIH 3T3 cells; assay type: cell-based, mouse
Method: (§3) Panel B: Western blot analysis. […] Panel C: Western blot analysis after 4-HT treatment. […] A half-life of cyclin D1 protein was calculated.
(§4) In order to investigate whether this was due to accelerated turnover of the cyclin D1 protein, the half-life of endogenous expression of cyclin D1 protein (FIG. 8, Panel E) was assessed.

MAPK (ERK1/2) = assay: Western blot after 4-HT treatment, ΔB-Raf:ER^TAM NIH 3T3 cells; assay type: cell-based, mouse; settings: 10 nM 4-HT
Method: as §3, §4

[7] = test system: cyclin D1 / E3 ligase FBXW8; settings: HCT 116 transfected with FBXW8, cyclin D1 and CDK4; 10 μM U0126 30 minutes
Method: Panel D: Immunoprecipitated-immunoblotting analysis. […] Panels D and E: Exponentially growing HCT 116 colon cancer cells were transiently transfected with Flag epitope-tagged FBXW8 DNA plasmid together with HA-tagged cyclin D1 and CDK4 expression vectors. Twenty-four hours later cells were treated with DMSO (−) or 10 μM of U0126 (+) for 30 minutes and then harvested. Cell lysates were immunoprecipitated with either a Flag (FBXW8) antibody or a control IgG and immunoblotted with cyclin D1, pThr286, and Flag (FBXW8) antibodies (left panel). Western blot for input controls (lysate) were provided (right panel).
Immunoprecipitation and Immunoblotting Analysis. […] Following antibodies were used for immunoprecipitation; Flag (M2 Agarose-conjugated, Sigma), cyclin D1 (A-12, Agarose-conjugated, Santa Cruz), CDK4 (H-303 or C-22 Agarose-conjugated, Santa Cruz), CDK6 (C-21, Santa Cruz), FLA (M2 Agarose-conjugated, Sigma), and HA (Y-11 Agarose-conjugated, Santa Cruz). Immunoblotting was performed using antibodies described above.
FBXW8 DNA plasmid together with cyclin D1 and CDK4 expression vectors were transiently transfected in exponentially growing HCT 116 colon cancer cells. After 24 hours, cells were treated with U0126 to inhibit MEK/MAPK signaling for 30 minutes. Subsequently cells were collected and an immunoprecipitated-immunoblotting analysis was performed (FIG. 12, Panels D and E).

cyclin D1 protein [8] = settings: HA-WT cyclin D1 SW480 cells; U0126 24 hours, then CHX, chased 3 hours
Method: FIG. 8 illustrates that MAPK regulates stability and relocalization of cyclin D1 protein. Panels A and B: Half-life analysis of HA-CD1 WT after exposure to U0126. Panel A: Exponentially growing HA-WT cyclin D1 SW480 cells were exposed to U0126 for 24 hours and subsequently treated with CHX and chased for 3 hours. Cells were harvested at different times and protein blot was performed (upper panel). Cyclin D1 expression was quantified and the half-life was calculated respectively. Panel B: Western blot analysis.
Immunoblotting Analysis. […] NE-PER nuclear and cytoplasmic extraction reagents (Pierce) were used for nuclear and cytoplasmic fractionation. […] Western blots were developed by enhanced chemiluminescence (Amersham or Upstate). […] Intensities of bands were quantified using Gel Doc 600 and Quantity One software (BioRad).
Exponentially growing HA-WT cyclin D1 SW480 cells were exposed to U0126 for 24 hours and subsequently treated with CHX and chased for 3 hours. […] Cyclin D1 expression was quantified and the half-life was calculated (FIG. 8, Panel A bottom graph).

[9] = test system: cyclin D1 protein (Thr286 phosphorylation); assay: Western blot of total cyclin D1 and pThr286 in HCT 116 cells after U0126 or GSK3 inhibitor; assay type: cell-based, human
Method: (§5) FIG. 11 illustrates that ERK/MAPK is identified as the major kinase that is responsible for the stability of cyclin D1 protein. Panels A-F: Pulse-chase analysis of cyclin D1 protein in HCT 116 cells after exposure to the MEK inhibitor U0126 (A-C) or the GSK3 inhibitor BIO (D-F). Exponentially growing HCT 116 cells were treated with either DMSO or 10 μM of U0126 (A-C) for 30 minutes, or DMSO or 5 μM of BIO (D-F) for 24 hours. Panels A and D: Cells were pulse-labeled with ^35S-methionine for 1 hour. Subsequently these cells were chased with cold methionine for the indicated times, and then lysed respectively. Cyclin D1 was immunoprecipitated and then analyzed with SDS-PAGE. Autoradiography was performed. Levels of metabolically labeled-cyclin D1 were estimated by quantitative scanning using the Quantity One (Bio-Rad) software and blotted on the graph to determine the half-life of cyclin D1. Panels B and E: Western blot analysis. The membrane was blotted with a cyclin D1 Thr286 phosphorylation specific (pThr286), total cyclin D1, a phosphorylation specific ERK, and total ERK antibodies (B), or a pThr286, cyclin D1, a GSKα/β phosphorylation specific, and GSK3β antibodies (E). Panels C and F: Cell cycle distributions were shown. Panel G: Western blot analysis following transfection of various forms of HA-tagged cyclin D1 expression vectors in both NIH 3T3 mouse fibroblast (left) and HCT 116 colon cancer (right) cells. In lane 5 and 10, cells were treated with 5 μM of BIO for further 24 hours following transfection of the ΔD CD1 mutant.
as §2
To determine the contribution of ERK/MAPK to the stability of cyclin D1 in cancer cells, MAPK activity was inhibited with the MEK inhibitor U0126 (Favata et al., 1998. J Bio Chem. 273, 18623-32; Davies et al., 2000. Biochem J. 351, 95-105). Exponentially growing HCT 116 colon cancer cells were treated with U0126 for 30 minutes (FIG. 11, Panels A-C).
In contrast, no effect on phosphorylation status and stability of cyclin D1 protein through inhibition of GSK3α/β ([…], Panels D-F) were detected. […] Cycling HCT 116 colon cancer cells were treated with BIO for 24 hours (FIG. 11, Panels D-F). A phosphorylation specific antibody to GSK3α and β was used to measure their endogenous activities because phosphorylations of GSK3α at Tyr279 and GSK3β at Tyr216 are intramolecular autophosphorylation events in the cells. Thus, phosphorylation status reflects their kinase activities (Cole et al., 2004. Biochem J. 377, 249-55).

MEK/MAPK [10] = test system: MEK/MAPK
Method: Immunoblot analysis was performed. […] Panels C and D: HA-WT CD1 (D) or Panel E: HA-CD1 T286A ectopically expressing SW480 cells were treated with highly specific small molecule inhibitors for GSK3β CDK4 and MEK. LiCl and BIO, AG12275, and U0126 were used for GSK, CDK4 and MEK/MAPK inhibitions respectively. Twenty-four hours after the treatment, cells were harvested and western-blot analyses were performed with a cyclin D1 and the p-Thr286 cyclin D1 antibodies. The phosphorylated cyclin D1 expression was magnified and normalized to its total (phosphorylated plus non-phosphorylated protein) expression and shown in the graphs in Panel C. Inhibition of the kinase activities by drugs was assessed using phosphorylation-specific antibodies for GSK3α/β, Rb and ERK1/2 on the same membrane respectively. […] HA-WT CD1 SW480 cells were treated with combining U0126 with LiCl.
After 24 hours of treatment with these highly specific small molecule inhibitors, expression levels of cyclin D1 and its phosphorylated form were analyzed (FIG. 5, Panel C). Levels of phosphorylated cyclin D1 were estimated by quantitative scanning with Quantity One (Bio Rad) software and were normalized to levels of total cyclin D1 protein (FIG. 5, Panel C bottom graphs).
Cells were next treated with the MEK inhibitor U0126.

MEK/MAPK [11] = assay: Western blot of phosphorylated ERK (pERK) in HCT 116 cells; assay type: cell-based, human
Method: as §5, with “Panel G: Western blot analysis following transfection of various forms of HA-tagged cyclin D1 expression vectors in both NIH 3T3 mouse fibroblast (left) and HCT 116 colon cancer (right) cells. In lane 5 and 10, cells were treated with 5 μM of BIO for further 24 hours following transfection of the ΔD CD1 mutant.” left out

cyclin D1 protein [12] = assay: Pulse-chase analysis of cyclin D1 protein in HCT 116 cells; assay type: cell-based, human; settings: exponentially growing HCT 116; 10 μM U0126 30 minutes
Method: FIG. 11 illustrates that ERK/MAPK is identified as the major kinase that is responsible for the stability of cyclin D1 protein. Panels A-F: Pulse-chase analysis of cyclin D1 protein in HCT 116 cells after exposure to the MEK inhibitor U0126 (A-C) or the GSK3 inhibitor BIO (D-F). Exponentially growing HCT 116 cells were treated with either DMSO or 10 μM of U0126 (A-C) for 30 minutes, or DMSO or 5 μM of BIO (D-F) for 24 hours. Panels A and D: Cells were pulse-labeled with ^35S-methionine for 1 hour. Subsequently these cells were chased with cold methionine for the indicated times, and then lysed respectively. Cyclin D1 was immunoprecipitated and then analyzed with SDS-PAGE. Autoradiography was performed. Levels of metabolically labeled-cyclin D1 were estimated by quantitative scanning using the Quantity One (Bio-Rad) software and blotted on the graph to determine the half-life of cyclin D1. […]
FIG. 18 illustrates that knockdown of FBXW8, or its partner CUL1 or CUL7 expression through siRNA stabilizes cyclin D1 expression in HCT 116 colon cancer cells. […] Cyclin D1 was immunoprecipitated and then analyzed with SDS-PAGE. Levels of metabolically labeled-cyclin D1 were estimated by quantitative scanning using the Quantity One software (Bio-Rad) and blotted on the graph to determine the half-life of cyclin D1 (D).
Pulse-Chase Analysis. […] Cyclin D1 was immunoprecipitated and then analyzed with SDS-PAGE. […]

[13] = test system: HCT 116 colon cancer cells; assay: Flow-cytometric cell cycle analysis, HCT 116 cells; assay type: cell-based, human; settings: U0126 30 minutes
Method: Cell cycle analysis was carried out as described previously (Tetsu et al. (1999) Nature 398: 422-6; Tetsu et al. (2003) Cancer Cell 3: 233-45.

[14] = HCT 116 transfected with FBXW8, cyclin D1 and CDK4, 10 μM U0126 30 minutes
[15] = exponentially growing HCT 116, U0126 30 minutes
[16] = HA-WT CD1 SW480 cells, U0126 24 hours

CCC(=C/[C@H](C)C/C=C/C(C)=C/[C@@H](C)C(=O)[C@@H](C)[C@H](O)[C@@H](C)C/C(C)=C/C(=O)O)/C=C/[C@@H]1OC(=O)C=C[C@@H]1C [Leptomycin B]
polyubiquitinated cyclin D1 bands in the nucleus ([1]; LMB 3 hours, then MG132 for an hour, nuclear fraction): did not enhance these bands significantly

CC(C)C[C@@H](C=O)NC(=O)[C@H](CC(C)C)NC(=O)[C@H](CC(C)C)NC(=O)OCc1ccccc1 [MG132] (Cbz-Leu-Leu-Leu-aldehyde)
reduced mobility (polyubiquitinated cyclin D1) bands ([1]; 25 μM MG132 for an hour): enhanced further | cyclin D1 protein accumulation, G1 versus S phase (cyclin D1 protein [2]): no difference between the G1 and S phase | cyclin D1 protein accumulation, G1 versus S phase (cyclin D1 protein [3]): no remarkable different | cyclin D1 protein accumulation during G1 phase (cyclin D1 protein [4]): no significant accumulation | cyclin D1 protein accumulation in S phase (cyclin D1 protein [4]): accumulated significantly

[Cl-].[Li+] [LiCl]
phosphorylated forms of GSK3α/β (GSK3α/β): disappeared | total cyclin D1 expression and its phosphorylated protein ([5]; HA-WT CD1 SW480 cells, 24 hours of treatment): no significant difference | effect of adding LiCl to U0126 on cyclin D1 ([5]; HA-WT cyclin D1 SW480 cells, U0126 combined with LiCl): little enhancement

4-hydroxy-tamoxifen [4-HT]
half-life of cyclin D1 protein (T1/2) (cyclin D1 protein [6]; exponentially growing cells, 10 nM 4-HT, then CHX, chased 3 hours): 20.6 min | cyclin D1 expression in S phase (cyclin D1 protein [6]; serum-stimulated from quiescence in the presence of 4-HT): dramatic reduction | MAPK activation (MAPK (ERK1/2)): MAPK activation

N#CC(=C(/N)Sc1ccccc1N)/C(C#N)=C(\N)Sc1ccccc1N [U0126]
association of cyclin D1 with the E3 ligase FBXW8 [7]: significant decrease | half-life of cyclin D1 protein (T1/2) (cyclin D1 protein [8]): 60.3 min | phosphorylation status of cyclin D1 at Thr286 (pThr286) [9, 14]: significantly inhibited | level of total cyclin D1 [9, 15]: not changed | phosphorylation of cyclin D1 at Thr286 (pThr286) [9, 15]: dramatic reduction | MAPK activity (MEK/MAPK [10]; HA-WT cyclin D1 SW480 cells, U0126 24 hours (FIG. 8 Panel B)): completely inhibited | phosphorylated ERK (MEK/MAPK [10]; SW480 cells, 24 hours after exposure): disappeared | MAPK activities (pERK) (MEK/MAPK [11]; [14]): significantly inhibited | phosphorylated form of ERK (pERK) (MEK/MAPK [11]; [15]): significantly depleted | half-life of cyclin D1 protein (cyclin D1 protein [12]): 54.6 min | ectopic expression of cyclin D1 T286A protein ([5]; HA-CD1 T286A SW480 cells, U0126): did not accumulate | cyclin D1 expression (ectopic HA-WT) [5, 16]: dramatic induction | ratio of phosphorylated cyclin D1 at Thr286 to total cyclin D1 [5, 16]: significant reduction | cell cycle profile [13]: without affecting
